{"source": "patent US20020107281A1", "about": "“Phototherapeutic and chemotherapeutic immunotherapy against tumors” (Photogen, Inc., priority 2000, published 2002)", "key": {"[1]": {"system": "recurrent malignant fibrous histocytoma", "experiment": "Rose Bengal injection plus 60Co irradiation of a dog's tumor (Example 1)", "assay_type": "in vivo", "experimental": "This anti-tumoral effect for the prototypical halogenated xanthene, Rose Bengal, is illustrated by the following example which is not intended to limit the present invention. An adult, female dog with a recurrent malignant fibrous histocytoma (an undifferentiated tumor that could be considered to be a poorly differentiated mesenchymal tumor), approximately 20 cc in volume, was treated by injection of approximately 7 cc of a 10% solution of Rose Bengal at several locations throughout the tumor volume. After a period of five days, an irradiation regimen consisting of 5 daily fractions (2 Gy each) of radiation from a ^60Co source was begun in order to effect phototherapy of the tumor. […] Such a response at 5 days is consistent with a chemotherapeutic modality of the injected Rose Bengal, while continued decrease in tumor mass at 19 days is consistent with a phototherapeutic modality related to tumor irradiation. […] This continued tumor regression is consistent with ongoing immune assault upon remaining tumor tissue."}, "subcutaneous RAG tumors [2]": {"system": "subcutaneous RAG tumors", "experiment": "Intra-lesional Rose Bengal chemotherapy of RAG tumors, immune incompetent mice (Example 8)", "assay_type": "in vivo, BALB/C athymic nude mice", "conditions": "10% solution intra-lesionally", "from_the_text": "(§1) The immunologic basis for phototherapy-induced immunity is further illustrated by the following example which is not intended to limit the present invention. As an additional control, immune incompetent mice were implanted with subcutaneous tumors, treated using phototherapy, then challenged with a second dose of tumor cells. Since they are immune incompetent, the inventors believed that such mice would respond to phototherapy but fail to develop immunity to tumor cells. […] The rate of tumor development from such implantation was approximately 50% (14/28 mice developed tumors within five weeks of injection). The tumors were treated using intra-lesionally-injected Rose Bengal and green light photoactivation (1% Rose Bengal administered intra-lesionally at approximately 1 cc/cm^3 tumor volume, then illuminated 24 hours post administration using 532 nm laser light at 100 J/cm^2, 200 mW/cm^2).\n(§2) The chemotherapeutic and immunologic anti-tumoral effect for the prototypical halogenated xanthene, Rose Bengal, is further illustrated by the following example which is not intended to limit the present invention. Immune competent mice (C57BL/6 mice) and immune incompetent mice (BALB/C athymic nude mice) were implanted with subcutaneous RAG tumors, as previously described in Example 4. […]"}, "[3]": {"system": "Murine hepatoma tumor cells (ATCC CRL-1830 Hepa 1-6)", "experiment": "Rose Bengal PDT of left-flank tumor in mice with bilateral hepatoma tumors (Example 5)", "assay_type": "in vivo, C57BL/6 mice", "experimental": "The immunologic basis for phototherapy-induced immunity is further illustrated by the following example which is not intended to limit the present invention. Murine hepatoma tumor cells (10^6 cells, ATCC CRL-1830 Hepa 1-6) were injected subcutaneously into the left flank of immunocompetent mice (C57BL/6). Concurrent with this implantation, a smaller implantation was performed by injecting 5×10^5 tumor cells into the right flank of these mice. Tumors presented in both flanks within approximately 5-6 days of implantation. One group of mice were otherwise untreated and served as controls. […] A second group received illumination of the left-flank tumor with green light (532 nm laser light at 100 J/cm^2, 200 mW/cm^2). […] A third group received intra-lesional injection of the left-flank tumor with 50 μL of a 10% Rose Bengal solution (the right-flank tumor was not treated); the injected tumor was then illuminated 24 hours post drug administration using 532 nm laser light."}, "subcutaneous RAG tumors [4]": {"system": "subcutaneous RAG tumors", "experiment": "Intra-lesional Rose Bengal chemotherapy of RAG tumors, immune competent mice (Example 8)", "assay_type": "in vivo, C57BL/6 mice", "conditions": "10% solution intra-lesionally", "from_the_text": "as §1, §2"}, "[5]": {"system": "renal adenocarcinoma (RAG) tumors", "experiment": "Rose Bengal PDT of RAG tumors in nude mice, then tumor cell rechallenge (Example 4)", "assay_type": "in vivo, BALB/C athymic nude mice", "from_the_text": "as §1"}, "[6]": {"system": "multiple superficial mast cell tumors", "experiment": "Intra-lesional Rose Bengal chemotherapy in a dog with mast cell tumors (Example 7)", "assay_type": "in vivo", "experimental": "This chemotherapeutic and immunologic anti-tumoral effect for the prototypical halogenated xanthene, Rose Bengal, is illustrated by the following example which is not intended to limit the present invention. An adult, female dog with multiple superficial mast cell tumors was treated by injection of several cc of a 10% solution of Rose Bengal into each of several tumors (approximately one third of the total tumors were treated in this manner). […] Such a response in the treated tumors is consistent with the expected chemotherapeutic modality of the injected Rose Bengal, while the noted decrease in non-treated tumors represents an ongoing immune assault upon remaining remote tumor tissues."}}, "data": [{"smiles": "O=C([O-])c1c(Cl)c(Cl)c(Cl)c(Cl)c1-c1c2cc(I)c(=O)c(I)c-2oc2c(I)c([O-])c(I)cc12.[Na+].[Na+]", "note": "[Rose Bengal]", "values": [{"measurement": "tumor mass at follow-up", "setting": "[1]; 12 weeks post injection", "value": "significant further reduction in tumor mass"}, {"measurement": "tumor size after irradiation", "setting": "[1]; 19 days post injection, after 5 daily fractions (2 Gy each) 60Co", "value": "further measurable decrease in tumor size"}, {"measurement": "side-effects in healthy tissue surrounding the tumor", "setting": "[1]; all follow-up intervals", "value": "no significant side-effects in healthy tissue surrounding the tumor"}, {"measurement": "tumor response before irradiation", "setting": "[1]; approximately 7 cc of 10% solution injected into tumor, five days post injection, immediately prior to irradiation", "value": "measurable decrease in tumor density along with significant edema and apparent necrosis of large sections of the tumor"}, {"measurement": "final histologic examination for viable tumor tissue", "setting": "[1]; approximately 12 months post-treatment", "value": "no evidence of viable tumor tissue was observed"}, {"measurement": "immediate effect of chemotherapeutic treatment on tumor", "setting": "subcutaneous RAG tumors [2]; approximately 1 cc/cm^3 tumor volume, immune incompetent mice", "value": "immediate tumor necrosis"}, {"measurement": "cure rate", "setting": "subcutaneous RAG tumors [2]; immune incompetent mice (0/4 mice treated), upon follow-up", "value": 0, "unit": "%"}, {"measurement": "eradication of the treated left-flank tumor", "setting": "[3]; 50 μL of 10% Rose Bengal solution intra-lesionally, 532 nm laser light 24 hours post administration", "value": "5/5"}, {"measurement": "spontaneous rejection of the untreated right-flank tumor", "setting": "[3]; left-flank tumor treated with 10% Rose Bengal and 532 nm light, right-flank tumor not treated", "value": "5/5"}, {"measurement": "immediate effect of chemotherapeutic treatment on tumor", "setting": "subcutaneous RAG tumors [4]; approximately 1 cc/cm^3 tumor volume, immune competent mice", "value": "immediate tumor necrosis"}, {"measurement": "cure rate", "setting": "subcutaneous RAG tumors [4]; immune competent mice (6/6 mice treated), upon follow-up", "value": 100, "unit": "%"}, {"measurement": "effect of phototherapy on treated lesions", "setting": "[5]; 1% Rose Bengal intra-lesionally, approximately 1 cc/cm^3 tumor volume, 532 nm laser light 100 J/cm^2 24 hours post administration", "value": "selective acute necrosis of treated lesions"}, {"measurement": "tumor development after challenge with second injection of RAG tumor cells", "setting": "[5]; seven complete responders, 10^4 tumor cells to opposite flank, five weeks following challenge (3/7 mice)", "value": "approximately 50%"}, {"measurement": "side-effects in healthy tissue surrounding the treated tumors", "setting": "[6]; all follow-up intervals", "value": "no significant side-effects in healthy tissue surrounding the treated tumors"}, {"measurement": "systemic side effects", "setting": "[6]; all follow-up intervals", "value": "nor any evidence of significant systemic side effects"}, {"measurement": "size of mast cell tumors, both treated and non-treated", "setting": "[6]; several cc of 10% solution into approximately one third of the tumors, over subsequent three month period, no light", "value": "marked and progressive reduction in size"}]}]}
